Where a name gives a salt, the structure may show the parent alone.
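Further: Luminescence-based viability readout, five doses per compound, normalized against on-plate DMSO and empty-well controls, followed by dose-response curve fitting for every drug.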

For the assay, the system named is HCT116. The assay is described as follows: efficacy (fitted maximal change in viability relative to DMSO control); higher = less cytotoxic (negative = loss of viability). The settings on record: 48 h.
With `C[C@@H](O)[C@@H]1NC(=O)[C@H](CCCCN)NC(=O)[C@@H](Cc2c[nH]c3ccccc23)NC(=O)[C@H](Cc2ccccc2)NC(=O)[C@@H](NC(=O)[C@H](N)Cc2ccccc2)CSSC[C@@H](C(=O)N[C@H](CO)[C@@H](C)O)NC1=O` [Octreotide], the efficacy was 9.15%.

For the compound `CC(C)(F)C[C@H](N[C@@H](c1ccc(-c2ccc([S+](C)(=O)[O-])cc2)cc1)C(F)(F)F)C(=O)NC1(C#N)CC1` [Odanacatib], the efficacy was -28.3%.

Turning to `CC1COC2=C3N1\C=C(C(O)=O)/C(=O)C3=CC(=C2N4CCN(C)CC4)F` (centres undefined) [Ofloxacin], the efficacy was -9.68%.

In the case of `N[C@@H](CCC(=O)O)C(=O)N[C@@H](Cc1c[nH]c2ccccc12)C(=O)O` [Oglufanide], the efficacy was -13.7%.

Regarding `FC1=C(C=C(C/C2=N/NC(=O)C3=C2C=CC=C3)C=C1)C(=O)N4CCN(CC4)C(=O)C5CC5` [Olaparib], the efficacy is -38.8%.

Regarding `CCCc1nc(C(C)(C)O)c(C(=O)O)n1Cc1ccc(-c2ccccc2-c2nn[nH]n2)cc1` [Olmesartan], the efficacy is -6.46%.

With `CN(C)CC/C=C1/c2ccccc2COc2ccc(CC(=O)O)cc21` [Olopatadine hydrochloride], the efficacy worked out at 5.52%.

For the compound `C\C1=C(\SSC1=S)C2=CN=CC=N2` [Oltipraz], the efficacy was -26.5%.

Take `COC(=O)N1CCN(Cc2cccc(NC(=O)Nc3ccc(C)nc3)c2F)CC1` [Omecamtiv mecarbil]: the efficacy was -28.6%.

As to `COc1ccc2[nH]c([S+]([O-])Cc3ncc(C)c(OC)c3C)nc2c1` (centres undefined) [Omeprazole], the efficacy was -17.5%.

On to `CN(CC#C)C/C1=C/C2=CC=CC=C2OC3=CC=CC=C13` [Omigapil], for which the efficacy is -34.5%.

Consider `CCCCCCCCCCCC(CC1OC(=O)C1CCCCCC)OC(=O)C(CC(C)C)NC=O` (centres undefined) [Orlistat], for which the efficacy is -6.83%.

For `OC(=O)C/1=C/C(=O)NC(=O)N1` [Orotic acid], the efficacy was -16.5%.

Consider `CNC(=O)c1ccc2cc(C3(O)CCn4cncc43)ccc2c1` (centres undefined) [Orteronel], for which the efficacy was -5.91%.

With `CCOC(=O)\C1=C\[C@@H](OC(CC)CC)[C@H](NC(C)=O)[C@@H](N)C1` [Oseltamivir phosphate], the efficacy is 13%.

For `OCCOc1ccc(/C(=C(/CCCl)c2ccccc2)c2ccccc2)cc1` [Ospemifene], the efficacy was -49.5%.

In the case of `C[C@]12COC(=O)C[C@@H]1CC[C@@H]1[C@@H]2CC[C@@]2(C)[C@H]1CC[C@]2(C)O` [Oxandrolone], the efficacy was -21.6%.

For `O=C1CCC[C@@H]2[C@H]3CCC[N+]4([O-])CCC[C@@H](CN12)[C@@H]34` (some centres undefined) [Oxymatrine], the efficacy is -29.8%.

As to `CC1=CC(=C(O)C(=C1C\C2=N\CCN2)C)C(C)(C)C` [Oxymetazoline hydrochloride], the efficacy is -19.1%.

`CC(C)Oc1ccc(-c2nc(-c3cccc4c3CC[C@@H]4NCCO)no2)cc1C#N` [Ozanimod]: the efficacy is -31.3%.

Consider `O=[N+]([O-])c1cn2c(n1)OC[C@@H](OCc1ccc(OC(F)(F)F)cc1)C2` [PA-824], for which the efficacy was -19.8%.

On to `COc1cc(OCc2cccc(-c3ccccc3)c2C)cc(OC)c1CN1CCCC[C@H]1C(=O)O` [PD-1/PD-L1 Inhibitor 1], for which the efficacy is -62%.

Regarding `FC1=CC=C(CN2\C=C/C=C(/C(=O)N[C@@H](COC3=CC4=C(NC(=O)N4)C=C3)C5=CC=CC=C5)C2=O)C=C1F` [PDPK1 Inhibitor], the efficacy is -72.1%.

Consider `O=C(CCN1CCN(C(=O)OCc2cc(Cl)cc(Cl)c2)CC1)c1ccc2[nH]c(=O)oc2c1` [PF-8380], for which the efficacy is -11.3%.

In the case of `O=C(/C=C/N1C[C@H]2C[C@@H]1CN2c1ccccn1)c1ccccc1O` [PFI-3], the efficacy was -9.44%.

`COc1ccccc1C(=O)Nc1cc2c(cc1N1CCCC1)n(C)c(=O)n2C` [PFI-4]: the efficacy is -64%.

As to `CCCCCCCCCCCCc1ccc([S+](=O)([O-])Nc2nncs2)cc1` [PHT-427], the efficacy is -13.9%.

On to `CC1=C(C=CC=C1)N2\C(=N/C3=C(C(=CC=C3)C)C2=O)C[N]4N=CC5=C4N=CN=C5N` [PIK-293], for which the efficacy is -6.78%.

For `O=C(CCCc1ccc2cccnc2n1)NCc1cc(-c2ccc(F)c(C(F)(F)F)c2)no1` [PRP003-062], the efficacy was -32.2%.

Take `Clc1cccc(-c2ccc(-c3nnc(CCCc4ccc5cccnc5n4)o3)cc2)c1` [PRP003-073]: the efficacy is -17.9%.

As to `O=C(Nc1cc(Cl)cc2c1[nH]c1cnccc12)c1cccnc1` [PS-1145], the efficacy is 18.5%.

Take `C[S+](=O)([O-])c1ccc(Oc2cc(F)cc(C#N)c2)c2c1[C@H](O)C(F)(F)C2` [PT-2385]: the efficacy was -10.6%.

Take `O=C(O)c1cccc(-c2noc(-c3ccccc3F)n2)c1` [PTC-124]: the efficacy was -22.5%.

For `C=CCN(/C=C1\C(=O)O[C@@H](COC)[C@]2(C)C1=C(O)C(=O)C1=C2[C@@H](OC(C)=O)C[C@]2(C)C(=O)CC[C@H]12)CC=C` [PX-866], the efficacy was -20.5%.

Consider `CN1CCCN=C1/C=C/c1cccs1` [PYRANTEL PAMOATE], for which the efficacy is -47%.

Regarding `CC(=O)O[C@H]1C(=O)[C@]2(C)[C@@H](O)C[C@H]3OC[C@@]3(OC(C)=O)C2[C@H](OC(=O)C4=CC=CC=C4)[C@]5(O)C[C@H](OC(=O)[C@H](O)[C@@H](NC(=O)C6=CC=CC=C6)C7=CC=CC=C7)\C(=C1/C5(C)C)C` (some centres undefined) [Paclitaxel], the efficacy is -68.3%.

As for `CC(=O)O[C@H]1C[C@@H]2CC[C@@H]3[C@H](CC[C@@]4(C)[C@H]3C[C@H]([N+]3(C)CCCCC3)[C@@H]4OC(C)=O)[C@@]2(C)C[C@@H]1[N+]1(C)CCCCC1` [Pancuronium bromide], the efficacy was -8.83%.

In the case of `COc1ccnc(C[S+]([O-])c2nc3cc(OC(F)F)ccc3[nH]2)c1OC` (centres undefined) [Pantoprazole], the efficacy is -34.5%.

Regarding `CCC(=O)[N-]S(=O)(=O)c1ccc(-c2c(-c3ccccc3)noc2C)cc1.[Na+]` [Parecoxib sodium], the efficacy is -9.88%.

Take `CCN1\C=C(C(O)=O)/C(=O)C2=C1C=C(N3CCN(C)CC3)C(=C2)F` [Pefloxacin]: the efficacy was found to be 5.51%.

Take `CSCC[C@H](NC(=O)[C@H](Cc1c[nH]c2ccccc12)NC(=O)CCNC(=O)OC(C)(C)C)C(=O)N[C@@H](CC(=O)O)C(=O)N[C@@H](Cc1ccccc1)C(N)=O` [Pentagastrin]: the efficacy was -5.16%.

`CC(C)CC(=O)N[C@H](C(=O)N[C@H](C(=O)N[C@@H](CC(C)C)[C@@H](O)CC(=O)N[C@@H](C)C(=O)N[C@@H](CC(C)C)[C@@H](O)CC(=O)O)C(C)C)C(C)C` [Pepstatin]: the efficacy was -6.41%.

Regarding `CCC[C@H](N[C@@H](C)C(=O)N1[C@H](C(=O)O)C[C@@H]2CCCC[C@@H]21)C(=O)OCC` [Perindopril], the efficacy was 9%.

`FC(F)(F)c1ccc(CNc2ccc(Cc3c[nH]c4ncc(Cl)cc34)cn2)cn1` [Pexidartinib]: the efficacy is -21.9%.

On to `NNCCc1ccccc1.O=S(=O)(O)O` [Phenelzine], for which the efficacy was -40.1%.

Take `CC(COc1ccccc1)N(CCCl)Cc1ccccc1` (centres undefined) [Phenoxybenzamine hydrochloride]: the efficacy is -19.8%.

On to `O=C(CCc1ccc(O)cc1)c1c(O)cc(O)cc1O` [Phloretin], for which the efficacy was found to be 6.68%.

With `O=C(CCc1ccc(O)cc1)c1c(O)cc(O)cc1O[C@@H]1O[C@H](CO)[C@@H](O)[C@H](O)[C@H]1O` [Phlorizin], the efficacy is -28.6%.

As for `Nc1nccc(-c2ccc3noc(-c4ccc(Cl)cc4)c3c2)n1` [Pim 1 Inhibitor 2], the efficacy was -55%.

Turning to `CCc1ccc(CCOc2ccc(CC3SC(=O)NC3=O)cc2)nc1` (centres undefined) [Pioglitazone hydrochloride], the efficacy amounted to 16.5%.

As for `Clc1ccc2c(N3CCN(CCCN4CCN(c5ccnc6cc(Cl)ccc56)CC4)CC3)ccnc2c1` [Piperaquine], the efficacy was -15.3%.

Take `c1cc(CN2CCCNCCNCCCNCC2)ccc1CN1CCCNCCNCCCNCC1` [Plerixafor hydrochloride]: the efficacy was -8.04%.

As for `COc1cc([C@@H]2c3cc4c(cc3[C@H](O)[C@H]3COC(=O)[C@H]23)OCO4)cc(OC)c1OC` [Podofilox], the efficacy is -62.3%.

Turning to `CCC(C)CCCCC(=O)N[C@@H](CCN)C(=O)NC(C(=O)N[C@H](CCN)C(=O)N[C@@H]1CCNC(=O)C([C@@H](C)O)NC(=O)[C@@H](CCN)NC(=O)[C@@H](CCN)NC(=O)[C@@H](CC(C)C)NC(=O)[C@H](Cc2ccccc2)NC(=O)[C@H](CCN)NC1=O)[C@@H](C)O` (some centres undefined) [Polymyxin B sulphate], the efficacy was -10.6%.

For the compound `Nc1cccc2c1C(=O)N(C1CCC(=O)NC1=O)C2=O` (centres undefined) [Pomalidomide], the efficacy is -14.1%.

Regarding `COC12C(COC(N)=O)\C3=C(/N1CC4C2N4C)C(=O)C(=C(N)/C3=O)\C` (centres undefined) [Porfiromycin], the efficacy was -81%.

With `O=C(O)C[C@H]1CC[C@H](c2ccc(-c3ccc(Nc4ccc(C(F)(F)F)nc4)cn3)cc2)CC1` [Pradigastat], the efficacy was -15.9%.

Take `CCO[C@@H]1OC(=O)C[C@@H]1NC(=O)[C@@H]1CCCN2C(=O)CC[C@H](NC(=O)c3nccc4ccccc34)C(=O)N12` [Pralnacasan]: the efficacy is -15.4%.

`CC[C@H](C)C(=O)O[C@H]1C[C@H](O)\C=C2\C=C/[C@H](C)[C@H](CC[C@@H](O)C[C@@H](O)CC(O)=O)[C@@H]12` [Pravastatin sodium]: the efficacy is -7.8%.

For the compound `O=C(C1CCCCC1)N1CC(=O)N2CCc3ccccc3C2C1` (centres undefined) [Praziquantel], the efficacy was -15.9%.

On to `C[C@]12CC(=O)[C@H]3[C@@H](CC\C4=C\C(=O)\C=C/[C@]34C)[C@@H]1CC[C@]2(O)C(=O)CO` [Prednisone], for which the efficacy is 8.5%.

`CC(C)C[C@H](CN)CC(=O)O` [Pregabalin]: the efficacy was -8.5%.

Take `CC(=O)[C@H]1CC[C@H]2[C@@H]3C/C=C4/C[C@@H](O)CC[C@]4(C)[C@H]3CC[C@]12C` [Pregnenolone]: the efficacy was -6.65%.

For the compound `COCCOc1ccc(N2CCN(CCn3ncc4c3nc(N)n3nc(-c5ccco5)nc43)CC2)cc1` [Preladenant], the efficacy is -16%.

Values taken from the supplement of paper PMC10290057.
